# Experimental data as given in patent publication US20170281509A1, “COMPOSITIONS AND METHODS FOR MITIGATING SKIN IRRITATION” (GOJO INDUSTRIES, INC., priority 2014, published 2017).
# Test system: IL-8 secretion by human dermal keratinocytes
# Assay: IL-8 secretion (ELISA) in human dermal keratinocytes co-treated with irritant surfactant mixture
# Assay type: cell-based
# Settings: FIG. 1
# Source text: Interleukin 8 (IL-8) is a chemokine and proinflammatory cytokine produced by macrophages and other cell types such as epithelial cells. It is secreted from keratinocytes in skin in response to inflammatory stimuli. IL-8 is secreted and is an important mediator of the immune reaction in the innate immune system response. IL-8 overexpressed is a biomarker of skin irritation. Thus, the following method may be employed to measure the irritancy potential of an ingredient or combination of ingredients.
# For Control A, human dermal keratinocytes were left untreated. No irritation is expected, and therefore Control A provided a baseline. For Control B, IL-8 was induced in human dermal keratinocytes by applying a surfactant mixture that is a combination of sodium laureth sulfate and polyquaternium-10. For all other samples, the human dermal keratinocytes were co-treated with the surfactant mixture and a composition containing the ingredient of interest. Decreased IL-8 expression reflects the ingredient's anti-irritation activity. In other words, decreased IL-8 expression reflects reduced irritancy potential.
# In order to carry out the test method, an assay kit was employed that was obtained from R&D Systems: Human CXCL8/IL-8 Duoset ELISA Kit.
# The following steps were followed: 1. […] Using a colorimeter, absorbance of each well in the plates was measured at 450 nanometers (nm) within 30 minutes. […]
substance,measurement,value
acetyl hexapeptide-51 amide,effect on IL-8 secretion compared to Control B (in words),reduced IL-8 secretion
